Data from patent US20230219956A1 (BETTA PHARMACEUTICALS CO.,LTD, priority 2019, published 2023).

Tests used:
MIA-PACA-2 cells = experiment: Cell proliferation assay, MIA-PACA-2 cells (Cell-titer Glo); format: cell-based; details: Homo sapiens, 96 h incubation
Method: (§1) Pave the MIA-PACA-2 cells into a 96-well ultra-low adsorption plate at 600 cells, 160 μL/well. After incubating overnight, compound solutions of gradient concentration was prepared, and added 40 μL of DMSO solution of the test compound of each concentration to the cells of each well. The final concentration of the compound is 10000, 2000, 400, 80, 16, 3.2, 0.64, 0.12, 0.025, 0 nM (the final concentration of DMSO is 0.25%). Incubated for 96 h at 37° C. and 5% CO2. 50 μL of Cell-titer Glo working solution was added to each well, shaked and mixed, and incubated at room temperature for 10 minutes. The multi-functional microplate reader read the luminescence value, and converted the luminescence value reading into inhibition percentage.
(§2) Inhibition percentage=(maximum value−reading)/(maximum value−minimum value)*100.
(§3) The “maximum value” was the DMSO control, the “minimum value” indicates the cell-free control group.
(§4) Graphpad Prism software was used to perform curve fitting and obtain IC50 value.
Refer to Table 3 for the IC50 data of some compounds in the examples inhibiting MIA-PACA-2 cells.

H358 cells = experiment: Cell proliferation assay, H358 cells (Cell-titer Glo); format: cell-based; details: Homo sapiens, NCI-H358, 96 h incubation
Method: as §1, with “the H358” for “the MIA-PACA-2”, “cells on” for “cells into”, “plate with 2000 cells and 190” for “plate at 600 cells, 160”, “added 10” for “added 40”, “10000, 3333.3, 1111.1, 370.4, 123.5, 41.2, 13.7, 4.6, 1.5,” for “10000, 2000, 400, 80, 16, 3.2, 0.64, 0.12, 0.025,”
as §2, §3, §4
Refer to table 3 for the IC50 data of some compounds in the Examples for inhibiting H358 cells.

Structure (SMILES)	IC50 (MIA-PACA-2 cells)	IC50 (H358 cells)
C=CC(=O)N1CC2(CCN(c3nc(C4CCN(C)CC4)nc4c(OC5CCC5)c(-c5c(C)ccc6[nH]ncc56)c(Cl)cc34)CC2)C1 [Example 33]	42.9 nM	69.7 nM
C=CC(=O)N1CCC(c2nc(N3CCC4(CC3)CN(C(=O)C=C)C4)c3cc(C=C)c(-c4c(C)ccc5[nH]ncc45)c(OCC(F)(F)F)c3n2)CC1 [Example 64, 1-(4-(4-(2-acryloyl-2,7-diazazospiro [3.5]nonan-7-yl)-7-(5-methyl-1H-indazole-4-yl)-8-(2,2,2-trifluoroethoxy)-6-vinylquinazolin-2-yl)piperidin-1-yl) propyl-2-en-1-one]	57.1 nM	16.6 nM
C=CC(=O)N1CC2(CCN(c3nc(C4CCN(CC(C)(C)O)CC4)nc4c(OCC(F)(F)F)c(-c5c(C)ccc6[nH]ncc56)c(C=C)cc34)CC2)C1 [Example 60]	4 nM	4.1 nM
C=CC(=O)N1CC2(CCN(c3nc(C4CCN(C5COC5)CC4)nc4c(OCC(F)(F)F)c(-c5c(C)ccc6[nH]ncc56)c(CC)cc34)CC2)C1 [Example 37]	23.4 nM	18.4 nM
C=CC(=O)N1CC2(CCN(c3nc(C4CCN(CC(=O)C(C)(C)C)CC4)nc4c(OCC(F)(F)F)c(-c5c(C)ccc6[nH]ncc56)c(C=C)cc34)CC2)C1 [Example 70, 1-(4-(4-(2-acryloyl-2,7-diazspiro [3.5]nonan-7-yl)-7-(5-methyl-1H-indazole-4-yl)-8-(2,2,2-trifluoroethoxy)-6-vinylquinazolin-2-yl)piperidin-1-yl)-3,3-dimethylbutane-2-one]	13.7 nM	15.5 nM
C=CC(=O)N1CC2(CCN(c3nc(C4CN(C(=O)C5CC5)C4)nc4c(OCC(F)(F)F)c(-c5c(C)ccc6[nH]ncc56)c(CC)cc34)CC2)C1 [Example 45, 1-(7-(2-(1-(Cyclopropanecarbonyl)azacyclobutane-3-yl)-6-ethyl-7-(5-methyl-1H-indazol-4-yl)-8-(2,2,2-trifluoroethoxy)quinazolin-4-yl)-2,7-diazaspo [3.5]nonan-2-yl) propyl-2-en-1-one]	778 nM	466 nM
C=CC(=O)N1CC2(CCN(c3nc(C4CCN(C)CC4)nc4c(OCC(F)F)c(-c5c(C)ccc6[nH]ncc56)c(Cl)cc34)CC2)C1 [Example 34]	36.9 nM	39 nM
C=CC(=O)N1CC2(CCN(c3nc(C4CCN(C)CC4)nc4c(OCC(F)(F)F)c(-c5ccc6[nH]ncc6c5)c(C5CC5)cc34)CC2)C1 [Example 17]	1540 nM	8440 nM
C=CC(=O)N1CC2(CCN(c3nc(C4CCN(Cc5ccccc5)CC4)nc4c(OCC(F)(F)F)c(-c5c(C)ccc6[nH]ncc56)c(C=C)cc34)CC2)C1 [Example 77, 1-(7-(2-(1-benzylpiperidin-4-yl)-7-(5-methyl-1H-indazol-4-yl)-8-(2,2,2-trifluoroethoxy)-6-vinylquinazolin-4-yl)-2,7-diazarospiro [3.5]nonan-2-yl) propyl-2-en-1-one]	33.7 nM	37.6 nM
C=CC(=O)N1CC2(CCN(c3nc(C4CCN(C(C)C)CC4)nc4c(OCC(F)(F)F)c(-c5c(C)ccc6[nH]ncc56)c(C=C)cc34)CC2)C1 [Example 71]	8.3 nM	7.4 nM
C=CC(=O)N1CC2(CCN(c3nc(C4CCN(C5CCC(O)CC5)CC4)nc4c(OCC(F)(F)F)c(-c5c(C)ccc6[nH]ncc56)c(C=C)cc34)CC2)C1 (stereo not drawn) [Example 73]	24.1 nM	24.3 nM
C=CC(=O)N1CC2(CCN(c3nc(C4CN(CC)C4)nc4c(OCC(F)(F)F)c(-c5c(C)ccc6[nH]ncc56)c(CC)cc34)CC2)C1 [Example 46, 1-(7-(6-ethyl-2-(1-ethyl-azacyclobutane-3-yl)-7-(5-methyl-1H-indazole-4-yl)-8-(2,2,2-trifluoroethoxy)quinazolin-4-yl)-2,7-diazarospiro [3.5]nonan-2-yl) propyl-2-en-1-one]	34 nM	37 nM
